Data as given in patent US8535730B1, “Anticalculus oral composition” (Colgate-Palmolive Company, priority 1985, dated 2013).
Read-outs that look alike come from different tables or passages of the source.

Columns and labels:
[1] = tested on: acid phosphatase, alkaline phosphatase, and inorganic pyrophosphatase; details: for Percent Orthophosphate Released in 90 min.: pH 7.0, 37° C.
Description: Enzymatic hydrolysis is conducted in 100 millimolar morpholinopropane sulfonic acid—NaOH buffer solution (pH 7.0) containing 1.3 mg./ml of TSPP. Inhibitors of this invention are added (except to the control) to a final concentration of 1,000 ppm fluoride ion (from NaF) and 0.5% of the sodium salt of hydrolyzed methoxyethylene-maleic anhydride (1:1) copolymer, M.W. 70,000 (Gantrez S-97 Pharmaceutical Grade). Equal activities of acid phosphatase, alkaline phosphatase, and inorganic pyrophosphatase are then added to yield a total phosphatase activity of 0.3 units/ml. Samples of the test solution are taken and total orthophosphate available in each sample measured after 3 hours hydrolysis in 4N HCl at 100° C. The reaction mixture is incubated at 37° C. with shaking and aliquots taken at appropriate times through at least 90 minutes for orthophosphate determination.

[2] = Description: The in vitro formation of HAP is measured titrimetrically via a pH stat procedure. Stock solutions of 0.1M CaCl2 and 0.1M NaH2PO4 are prepared fresh in carbonate-free deionized distilled water. To 23 ml CO2-free deionized water 1.0 ml. of the stock phosphate solution and 1.0 ml. of an aqueous solution of 1×10^−4 of the anticalculus agent being tested are added followed by 1.0 ml. of the stock calcium-chloride solution which initiates the reaction. The reaction is conducted at pH 7.4 under a nitrogen atmosphere. Consumption of 0.1N NaOH is recorded automatically from which the time required for crystal formation is determined.

Structure (SMILES)	Percent Orthophosphate Released in 90 min. ([1]; Control (no inhibitors), 1.3 mg./ml TSPP, total phosphatase activity 0.3 units/ml)	Percent Orthophosphate Released in 90 min. ([1]; With Inhibitors: 1,000 ppm fluoride ion (from NaF) and 0.5% Gantrez S-97, 0.3 units/ml phosphatase)	Percent Relative Protection (reduction of hydrolysis of P-O-P bonds with inhibitors) ([1]; With inhibitors vs control, 90 min.)	Time of Crystal Growth Inhibition ([2]; Water, pH 7.4, nitrogen atmosphere)	Delay of HAP formation (in words) ([2]; in water)	Time of Crystal Growth Inhibition ([2]; incubated with Alk. Phosphatase, pH 7.4)	Time of Crystal Growth Inhibition ([2]; incubated with Pyrophosphatase, pH 7.4)	Time of Crystal Growth Inhibition ([2]; incubated with Saliva, pH 7.4)	Delay period of HAP formation (in words) ([2]; incubated with pyrophosphatase and alkaline phosphatase)	Effectiveness in delaying HAP formation (in words) ([2]; incubated with saliva)	Enzymatic hydrolysis results compared with TSPP (in words) ([1]; equivalent amounts of TKPP substituted for TSPP, with and without inhibitors)	HAP formation inhibition results compared with TSPP (in words) ([2]; water, saliva, pyrophosphatase, alkaline phosphatase, TKPP instead of TSPP)
O=P([O-])([O-])OP(=O)([O-])[O-].[Na+].[Na+].[Na+].[Na+] [TSPP, Tetrasodium pyrophosphate]	98%	58%	41%	0.8 h	significantly delays HAP formation	0.0 h	0.3 h	0.4 h	drastically reduces the delay period	drastically reduced	–	–
O=P([O-])([O-])OP(=O)([O-])[O-].[K+].[K+].[K+].[K+] [TKPP, tetrapotassium pyrophosphate]	–	–	–	–	–	–	–	–	–	–	Substantially the same results	Substantially the same results
